Activity calls are given as the source filed them. The rule behind the calls is not given here. Residues, ends and D or L forms follow the SMILES beside them.
Target: T1, Aurora kinase A (Homo sapiens) (UniProt O14965)
T1 sequence (whole entry): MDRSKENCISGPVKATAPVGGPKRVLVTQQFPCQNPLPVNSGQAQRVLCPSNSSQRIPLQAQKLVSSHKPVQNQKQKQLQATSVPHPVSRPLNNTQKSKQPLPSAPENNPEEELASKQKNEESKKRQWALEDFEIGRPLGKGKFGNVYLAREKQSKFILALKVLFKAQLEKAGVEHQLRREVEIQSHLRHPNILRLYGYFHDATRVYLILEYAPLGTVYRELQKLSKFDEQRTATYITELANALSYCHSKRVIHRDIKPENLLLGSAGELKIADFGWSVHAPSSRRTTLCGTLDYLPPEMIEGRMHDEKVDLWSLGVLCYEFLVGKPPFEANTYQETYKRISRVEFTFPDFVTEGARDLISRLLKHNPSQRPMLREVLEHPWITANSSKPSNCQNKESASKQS
Experiment: Binding affinity to GST-tagged Aurora A after 1 hr by ELISA

| Activity | Compound |
| --- | --- |
| Active | H-AELAALEAELAALEGNISRFWVLAGKLAALKAKLAALKA-OH |
| Active | H-AELAALEAELAALEGLQTMWHSLWGKLAALKAKLAALKA-OH |
| Active | H-AELAALEAELAALEGGLSEVHGLSGKLAALKAKLAALKA-OH |
| Active | H-AELAALEAELAPLEGYVSAGSQLWDGKLAALKAKLAALKA-OH |
| Active | H-AELAALEAELAALEGSVAQLGLLLGKLAALKAKLAALKA-OH |
| Active | CC[C@H](C)[C@H](NC(=O)[C@H](CCCNC(=N)N)NC(=O)CNC(=O)[C@H](CC(C)C)NC(=O)[C@H](CC(C)C)NC(=O)[C@@H]1CCCN1C(=O)[C@H](CO)NC(=O)[C@H](Cc1c[nH]c2ccccc12)NC(=O)CNC(=O)[C@H](CCC(=O)O)NC(=O)[C@H](CC(C)C)NC(=O)[C@H](C)NC(=O)[C@H](C)NC(=O)[C@H](CC(C)C)NC(=O)[C@H](CCC(=O)O)NC(=O)[C@H](C)NC(=O)[C@H](CCC(=O)O)NC(=O)[C@H](CC(C)C)NC(=O)[C@H](C)NC(=O)[C@H](C)NC(=O)[C@H](CC(C)C)NC(=O)[C@H](CCC(=O)O)NC(=O)[C@@H](C)N)C(=O)N[C@@H](CC(C)C)C(=O)NCC(=O)N[C@@H](CCCCN)C(=O)N[C@@H](CC(C)C)C(=O)N[C@@H](C)C(=O)N[C@@H](C)C(=O)N[C@@H](CC(C)C)C(=O)N[C@@H](CCCCN)C(=O)N[C@@H](C)C(=O)N[C@@H](CCCCN)C(=O)N[C@@H](CC(C)C)C(=O)N[C@@H](C)C(=O)N[C@@H](C)C(=O)N[C@@H](CC(C)C)C(=O)N[C@@H](CCCCN)C(=O)N[C@@H](C)C(=O)O |
| Active | H-AELAALEAELAALEGGSPRWYELLGKLAALKAKLAALKA-OH |
| Active | H-AELAALEAELAALEGSRRMWNAYEGKLAALKAKLAALKA-OH |
| Active | H-AELAALEAELAALEGLQQVLSYIFGKLAALKAKLAALKA-OH |
| Active | H-AELAALEAELAALEGWGGLMGWISGKLAALKAKLAALKA-OH |
| Active | H-AELAALEAELAALEGMRDWLIIGFGKLAALKAKLAALKA-OH |
| Active | H-AELAALEAELAALEGSGMLAHFSWGKLAALKAKLAALKA-OH |
| Active | H-AELAALEAELAAPEGSQERKGVLAGKLAALKAKLAALKA-OH |
| Active | H-AELAALEAELAALEGDVAVAVRWDGKLAALKAKLAALKA-OH |
| Active | CC(C)C[C@H](NC(=O)[C@H](C)NC(=O)[C@H](C)NC(=O)[C@H](CC(C)C)NC(=O)[C@H](CCC(=O)O)NC(=O)[C@H](C)NC(=O)[C@H](CCC(=O)O)NC(=O)[C@H](CC(C)C)NC(=O)[C@H](C)NC(=O)[C@H](C)NC(=O)[C@H](CC(C)C)NC(=O)[C@H](CCC(=O)O)NC(=O)[C@H](C)N)C(=O)N[C@@H](CCC(=O)O)C(=O)NCC(=O)N[C@@H](CS)C(=O)N[C@H](C(=O)N[C@@H](CO)C(=O)N[C@H](C(=O)N[C@@H](Cc1ccc(O)cc1)C(=O)N[C@@H](CS)C(=O)N[C@H](C(=O)N[C@H](C(=O)N[C@@H](CO)C(=O)NCC(=O)N[C@@H](CCCCN)C(=O)N[C@@H](CC(C)C)C(=O)N[C@@H](C)C(=O)N[C@@H](C)C(=O)N[C@@H](CC(C)C)C(=O)N[C@@H](CCCCN)C(=O)N[C@@H](C)C(=O)N[C@@H](CCCCN)C(=O)N[C@@H](CC(C)C)C(=O)N[C@@H](C)C(=O)N[C@@H](C)C(=O)N[C@@H](CC(C)C)C(=O)N[C@@H](CCCCN)C(=O)N[C@@H](C)C(=O)O)C(C)C)[C@@H](C)O)C(C)C)[C@@H](C)O (H-AELAALEAELAALEGCTSVYCTVSGKLAALKAKLAALKA-OH) |
| Active | H-AELAALEAELAALEGGYERRGWGVTGKLAALKAKLAALKA-OH |
| Active | H-AELAALEAELAALEGAPCLVMTTAGKLAALKAKLAALKA-OH |
| Active | H-AELAALEAELAALEGKVYMFWTIMGKLAALKAKLAALKA-OH |

| Activity | Compound |
| --- | --- |
| Active | H-AELAALEAELAALEGWRRRLNNWWGKLAALKAKLAALKA-OH |
| Active | H-AELAALEAELAALEGQVGSTRLLSGKLAALKAKLAALKA-OH |
| Active | H-AELAALEAELAALEGFPGRFGLFVGKLAALKAKLAALKA-OH |
| Active | H-AELAALEAELAALEGGKVAAWGFWGKLAALKAKLAALKA-OH |
| Active | H-AELAALEAELAALEGQGRADMSILGKLAALKAKLAALKA-OH |
| Active | H-AELAALEAELAALEGWVQVAQKVRGKLAALKAKLAALKA-OH |
| Active | H-AELAALEAELAALEGWLIELLWIVGKLAALKAKLAALKA-OH |
| Active | H-AELAALEAELAALEGRRAVWPFGFGKLAALKAKLAALKA-OH |
| Active | H-AELAALEAELAALEGWVGMREVWRGKLAALKAKLAALKA-OH |
| Active | H-AELAALEAELAALEGQLWMLNTILGKLAALKAKLAALKA-OH |
| Active | H-AELAALEAELAALEGLVMGVKAFLGKLAALKAKLAALKA-OH |
| Active | CC(C)C[C@H](NC(=O)[C@H](C)NC(=O)[C@H](C)NC(=O)[C@H](CC(C)C)NC(=O)[C@H](CCC(=O)O)NC(=O)[C@H](C)NC(=O)[C@H](CCC(=O)O)NC(=O)[C@H](CC(C)C)NC(=O)[C@H](C)NC(=O)[C@H](C)NC(=O)[C@H](CC(C)C)NC(=O)[C@H](CCC(=O)O)NC(=O)[C@H](C)N)C(=O)N[C@@H](CCC(=O)O)C(=O)NCC(=O)N[C@@H](CCCNC(=N)N)C(=O)N[C@@H](CCCCN)C(=O)N[C@@H](CC(=O)O)C(=O)N[C@@H](Cc1ccc(O)cc1)C(=O)N[C@@H](Cc1ccccc1)C(=O)N[C@@H](Cc1cnc[nH]1)C(=O)N[C@@H](CC(C)C)C(=O)N[C@@H](Cc1c[nH]c2ccccc12)C(=O)N[C@@H](Cc1cnc[nH]1)C(=O)N[C@@H](CC(=O)O)C(=O)NCC(=O)N[C@@H](CCCCN)C(=O)N[C@@H](CC(C)C)C(=O)N[C@@H](C)C(=O)N[C@@H](C)C(=O)N[C@@H](CC(C)C)C(=O)N[C@@H](CCCCN)C(=O)N[C@@H](C)C(=O)N[C@H](CCCCN)C(=O)N[C@H](CC(C)C)C(=O)N[C@H](C)C(=O)N[C@H](C)C(=O)N[C@H](CC(C)C)C(=O)N[C@H](CCCCN)C(=O)N[C@H](C)C(=O)O |
| Active | CSCC[C@H](NC(=O)[C@@H]1CCCN1C(=O)[C@H](CCC(N)=O)NC(=O)[C@@H]1CCCN1C(=O)CNC(=O)[C@H](CCC(=O)O)NC(=O)[C@H](CC(C)C)NC(=O)[C@H](C)NC(=O)[C@H](C)NC(=O)[C@H](CC(C)C)NC(=O)[C@H](CCC(=O)O)NC(=O)[C@H](C)NC(=O)[C@H](CCC(=O)O)NC(=O)[C@H](CC(C)C)NC(=O)[C@H](C)NC(=O)[C@H](C)NC(=O)[C@H](CC(C)C)NC(=O)[C@H](CCC(=O)O)NC(=O)[C@@H](C)N)C(=O)N[C@@H](Cc1c[nH]c2ccccc12)C(=O)NCC(=O)N[C@@H](CO)C(=O)N[C@@H](Cc1c[nH]c2ccccc12)C(=O)N[C@@H](CCCNC(=N)N)C(=O)NCC(=O)N[C@@H](CCCCN)C(=O)N[C@@H](CC(C)C)C(=O)N[C@@H](C)C(=O)N[C@@H](C)C(=O)N[C@@H](CC(C)C)C(=O)N[C@@H](CCCCN)C(=O)N[C@@H](C)C(=O)N[C@@H](CCCCN)C(=O)N[C@@H](CC(C)C)C(=O)N[C@@H](C)C(=O)N[C@@H](C)C(=O)N[C@@H](CC(C)C)C(=O)N[C@@H](CCCCN)C(=O)N[C@@H](C)C(=O)O |
| Active | H-AELAALEAELAALEGGTKMWSLLVDGKLAALKAKLAALKA-OH |
| Active | H-AELAALEAELAALEGSRNQMYWLYGKLAALKAKLAALKA-OH |
| Active | H-AELAALEAELAALEGRDQVMWFLHGKLAALKAKLAALKA-OH |
| Active | H-AELAALEAELAALEGSGAWMGSLLGKLAALKAKLAALKA-OH |

— ChEMBL document CHEMBL1154915, “Selection of inhibitory peptides for Aurora-A kinase from a phage-displayed library of helix-loop-helix peptides” (Bioorg Med Chem Lett, 2010)
